According to PubChem BioAssay (NCI):
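Interpolation was linear, between the two tested concentrations surrounding the appropriate level; five concentrations were tested over 48 hours in 96-well plates. TGI: concentration producing complete growth inhibition.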

What was measured:
Test in all cases: DTP human tumour cell line panel, 48 h
[1] = tested on: CCRF-CEM leukemia
[2] = tested on: UACC-257 melanoma
[3] = tested on: MDA-N
[4] = tested on: SK-MEL-2 melanoma
[5] = tested on: HCT-116 colon
[6] = tested on: A498 renal
[7] = tested on: HT29 colon
[8] = tested on: M14 melanoma
[9] = tested on: K-562 leukemia
[10] = tested on: U251 CNS

Compound	TGI [1] [µM]	TGI [2] [µM]	TGI [3] [µM]	TGI [4] [µM]	TGI [5] [µM]	TGI [6] [µM]	TGI [7] [µM]	TGI [8] [µM]	TGI [9] [µM]	TGI [10] [µM]
CC1CC[C@@]2(OC1)OC1C[C@H]3[C@@H]4C/C(=N\N(C)C)[C@@]5(O)CC(O)CC[C@]5(C)[C@H]4CC[C@]3(C)C1[C@@H]2C (some centres undefined)	> 100	> 100	52.6	> 100	76.1	> 100	49.2	> 100	> 100	> 100
O=c1[nH]c(=O)n(C2CC(O)C(CO)O2)cc1OCCCc1ccccc1 (centres undefined)	> 100	> 100	> 100		> 100		> 100	> 100	> 100	> 100
Cc1cccc2c1Oc1ccccc1C2NC(=O)c1ccc([N+](=O)[O-])cc1 (centres undefined)	> 100	> 100	> 100	> 100	> 100	> 100	> 100	> 100	> 100	> 100
COc1cccc(NC(=S)Nn2c(C)nc3ccccc3c2=O)c1	> 100	> 100		> 100	> 100	> 100	> 100	> 100	> 100	> 100
Cn1c(=O)cc(NCc2ccc(Cl)cc2)[nH]c1=O		> 100	> 100	> 100	> 100	> 100	> 100	> 100	> 100	> 100
CC1=C2c3c(C)ccc4ccc(C)c(c34)C2(O)C(C)C1=O (centres undefined)		> 100	> 100	> 100	> 100	> 100	> 100	> 100	> 100	> 100
COc1ccc(/C=C2\C[C@H]3[C@@H]4CCC5=C[C@@H](N6CCCC6)CC[C@]5(C)[C@H]4CC[C@]3(C)[C@H]2O)cc1		2.98	3.73	3.6	5.45	3.2	3.15	2.9	11.8	12.5
CCCc1cc(=O)oc2c3c(c4c(c12)OC(C)(C)C=C4)O[C@@H](C)[C@H](C)C3=O	48.3	37.3	36.4		24.2	29.9	23.2		27.7	97.6
CC1(c2nc3cc(Cl)c(Cl)cc3[nH]2)CCC(CO)C(C)(C)O1 (centres undefined)	> 100	> 100	> 100	90.4	> 100		34.2	92.5	> 100	> 100
O=C1CN2Cc3cc(N4CCOCC4)ccc3N=C2N1	> 100	> 100		> 100	> 100	> 100	> 100	> 100	> 100	> 100
CCC1=CC2CN3CCc4c([nH]c5ccccc45)C(C(=O)OC)(C2)C13 (centres undefined)	252	104		114	71	108	60.4		202	117
CCCCc1c2c(nc3c1CCCC3O)/C(=C/c1ccccc1)CCC2 (centres undefined)	43.9	96.6		51.7	> 100	> 100	46.1	53.8	40.5	64.1
Cc1ccc(-c2c(C#N)c(S)n(NS(=O)(=O)c3ccc(C)cc3)c(=O)c2C#N)cc1	> 100	> 100	> 100	62.2	90.9	> 100		81.5	> 100	37.7
O=[N+]([O-])c1cccc2nc3ccccc3c(NCCc3cccc[n+]3[O-])c12		0.0647	0.0464	0.528		0.225	0.0628	< 0.0172	> 100	0.145
CC1(C)C(=O)C(C)(C)C12SSC1(S2)C(C)(C)C(=O)C1(C)C		> 100	> 100	> 100	> 100	> 100	> 100	> 100	> 100	> 100
O=C(CC(=O)N1N=C(N2CCCCC2)CC1c1ccccc1)Nc1ccc(Cl)cc1 (centres undefined)	> 100	> 100	> 100	> 100	> 100	> 100	> 100	> 100		> 100
N#Cc1c(-c2ccco2)cc(-c2ccc(NCc3nc4ccccc4[nH]3)cc2)nc1N	> 100			40.3	45.9	> 100	91.7	35.8	71.7	> 100
CC1(C)CC(=O)C2=C(C1)c1c(ccc3ccccc13)NC2c1cn(Cc2ccc(Cl)cc2)c2ccccc12 (centres undefined)	> 100	> 100	> 100	> 100	> 100		> 100	> 100	> 100	> 100
CCOC(=O)c1c(C)c2c(n1C)CCc1cn[nH]c1-2	> 100	> 100		> 100	> 100	> 100	> 100		> 100	> 100
COc1nc(SC)nc2c1cnn2C1OC(C(O)CO)C(OC)C1O (centres undefined)	> 100	> 100		> 100	> 100	> 100	> 100		> 100	> 100
COC(OC)c1cccc2c1C(=O)CCC1(O)c3ccccc3C1C2 (centres undefined)	> 100	> 100		> 100	> 100		> 100	> 100	> 100	
CCCCC(C)C1CCC2(C)C=CC(=O)C(C)=C2C1O (centres undefined)	> 100	> 100		> 100	> 100	> 100	> 100		> 100	> 100
O=C(O)C1CCCN1Cc1cc2ccccc2c2ccccc12 (centres undefined)		> 100	> 100	> 100	> 100	> 100	> 100	> 100	> 100	> 100
